This note sets out measurements from patent publication US5187165A, “Memory enhancing and analgesic 1,2,3a,8,8a-hexahydro-3a,8(and 1,3a,8)-di(and tri)methylpyrrolo[2,3-b]indoles” (priority 1988, dated 1993).

SMILES strings stand for the structures. Where a name gives a salt, the structure may show the parent alone.

The target in data set [1] is T1, acetylcholinesterase (Brain AChE) (Rattus norvegicus, UniProt P37136).
T1 construct: corpora striata dissected free, weighed and homogenized in 19 volumes; from tissue; host or cells: corpora striata of male Wistar rats, crude homogenate in phosphate buffer
T1 sequence (P37136 32-614): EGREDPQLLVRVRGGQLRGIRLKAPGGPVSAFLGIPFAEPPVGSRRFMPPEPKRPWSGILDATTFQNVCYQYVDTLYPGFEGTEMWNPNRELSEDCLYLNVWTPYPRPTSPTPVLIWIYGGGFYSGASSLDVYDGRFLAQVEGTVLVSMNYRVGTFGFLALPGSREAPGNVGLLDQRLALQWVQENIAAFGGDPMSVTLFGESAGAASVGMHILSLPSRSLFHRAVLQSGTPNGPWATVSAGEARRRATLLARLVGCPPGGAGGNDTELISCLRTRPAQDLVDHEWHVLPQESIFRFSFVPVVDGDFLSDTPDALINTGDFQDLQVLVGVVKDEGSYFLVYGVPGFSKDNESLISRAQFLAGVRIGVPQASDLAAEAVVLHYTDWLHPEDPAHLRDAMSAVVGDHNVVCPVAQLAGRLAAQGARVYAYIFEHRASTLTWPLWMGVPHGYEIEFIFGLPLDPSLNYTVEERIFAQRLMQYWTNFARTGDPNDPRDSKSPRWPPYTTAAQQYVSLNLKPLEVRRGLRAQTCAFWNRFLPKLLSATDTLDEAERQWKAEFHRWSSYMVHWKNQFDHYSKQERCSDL
Nature of the data set: In Vitro Inhibition of Acetylcholinesterase Activity in Rat Striatum. The format is biochemical. The source says:
(§1) Cholinesterases are found throughout the body, both in the brain and in serum. However, only brain acetylcholinesterase (AChE) distribution is correlated with central cholinergic innervation. […] We have determined in vitro inhibition of acetylcholinesterase activity in rat striatum and in vitro inhibition of butrylcholinesterase activity in human serum according to the methods described below.
The method described below was used in this invention for assaying cholinesterase activity. This is a modification of the method of Ellman et al., Biochem. Pharmacol. 7, 98 (1961).
1. 0.05M Phosphate buffer, pH 7.2
(§2) (a) 9.9 mg 5,5-dithiobisnitrobenzoic acid (DTNB) (0.25 mM)
(b) 99 mg s-acetylthiocholine chloride (5 mM)
(§3) (c) q.s. to 100 ml with 0.05M phosphate buffer, pH 7.2 (reagent 1)
Male Wistar rats are decapitated, brains rapidly removed, corpora striata dissected free, weighed and homogenized in 19 volumes (approximately 7 mg protein/ml) of 0.05M phosphate buffer, pH 7.2 using a Potter-Elvehjem homogenizer. A 50 microliter aliquot of the homogenate is added to 50 microliter vehicle of various concentrations of the test drug and preincubated for 10 minutes at room temperature.
1. For routine IC50 determinations the Abbott Bichromatic Analyzer, ABA-100, is used to determine acetylcholinesterase activity.
Incubation temperature: 30° C.
Following the 10 minute preincubation of the tissue (enzyme) with the inhibitor, the samples are mixed with the substrate chromogen buffer by the ABA-100. Using the indicated instrument settings the ABA-100 automatically reads the color reaction and prints out the results in enzyme units after 15 minutes.
2. The enzyme activity can also be measured with Gilford 250 spectrophotometer. This method is used for more accurate kinetic measurments.
Reagents are added to the reference and sample side of a split curvette as follows.
The uninhibited activity of the enzyme (tissue homogenate) is first determined. Test drugs are made up in a suitable solvent and added in suitable dilutions to the buffer vehicle. The reaction rate is determined by the slope of the recorded absorbance change. The actual rate (moles/liter/min) can be calculated as described in the following formula
rate(moles/liter/min)=slope/(1.36×10^4).

Data set [2] deals with T2, butyrylcholinesterase (Serum AChE) (Homo sapiens, UniProt P06276).
T2 construct: A vial of lyophilized human serum; purchased Biodynamics, Houston, Tex; (Precilip); host or cells: lyophilized human serum, reconstituted in water; enzyme not purified
As to the kind of experiment: In Vitro Inhibition of Butyrylcholinesterase Activity in Human Serum. The format is biochemical.
Source text: as §1
This assay can be used in conjunction with the acetylcholinesterase assay to determine the enzyme selectivity of various chloinesterase inhibitors.
Butyrylcholinesterase (BChE), which is sometimes called pseudocholinesterase, preferentially hydrolyzes butyrylcholine. This enzyme is found in the highest amounts in serum, but its physiological role is not known.
as §2
(b) 113 mg s-butyrylthiochloine chloride (5 mM)
as §3
A vial of lyophilized human serum (Precilip, Biodynamics, Houston, Tex. is reconstituted in 3 ml of distilled water. A 10 microliter aliquot of this suspension is added to 90 microliter of the vehicle or various concentrations of the test drug and preincubated for 10 minutes at room temperature.
Substantially the same procedure is used as described above in Section C of the Procedure used for determining the inhibition of acetylcholinsterase activity.

Data set [3] deals with scopolamine-induced memory deficit. Nature of the data set: Dark Avoidance Assay (scopolamine induced memory deficit reversal). Format: in vivo, mice. As to conditions: Mus musculus, sc, 24 h, read-out: % of Animals with Scopolamine Induced Memory Deficit Reversal. How it is done: In this assay mice are tested for their ability to remember an unpleasant stimulus for a period of 24 hours. A mouse is placed in a chamber that contains a dark compartment; a strong incandescent light drives it to the dark compartment, where an electric shock is administered through metal plates on the floor. The animal is removed from the testing apparatus and tested again, 24 hours later, for the ability to remember the electric shock.
If scopolamine, an anticholinergic that is known to cause memory impairment, is administered before an animal's initial exposure to the test chamber, the animal re-enters the dark compartment shortly after being placed in the test chamber 24 hours later. This effect of scopolamine is blocked by an active test compound, resulting in a greater interval before re-entry into the dark compartment.
The results for an active compound are expressed as the percent of a group of animals in which the effect of scopolamine is blocked, as manifested by an increased interval between being placed in the test chamber and re-entering the dark compartment.

For data set [4], the system named is tetrabenazine-induced ptosis. As to the kind of experiment: Prevention of Tetrabenazine-Induced Ptosis In Mice (TBZ). Format: in vivo. An excerpt: Tetrabenazine (TBZ) induces behavioral depression with concomitant ptosis in mice similar to reserpine. Antidepressant compounds, both monoamineoxidase inhibitors and tricyclics, are known to prevent or antagonize these effects and the degree of antagonism correlates with clinical efficacy. The prevention of TBZ-induced ptosis in mice is used as a preliminary screen for possible antidepressant activity. The method used in this invention is as follows:
Male mice weighing 20 to 30 grams are used in test groups of five subjects. All compounds are dissolved or suspended with a suitable surfactant in distilled water and administered in volumes of 10 ml/kg of body weight. TBZ solution is made from the methanesulfonate salt and the concentration is adjusted to enable administration of 60 mg/kg of base by intraperitoneal (i.p.) injection.
The pretreatment time is measured from the time of dosing to observation. Therefore, when a […] pretreat is utilized, drug and TBZ are given simultaneously. A control group receives solvent and TBZ at intervals identical to drug group. For a primary screen, the drug is administered i.p. and a group size of five is utilized. Eight animals/group are used for a dose range.
Thirty minutes after TBZ, the subjects are placed in individual plastic containers (10.5×8×6 inches) in the presence of white noise and one minute after the transfer, they are scored for ptosis on the following scale: Eyes closed=4, eyes 3/4 closed=3, eyes 1/2 closed=2, eyes 1/4 closed=1, eyes open=0. The total score for each group of five in a primary screen will, therefore, be from 0 to 20 and these scores are used as indications of drug activity.
The vehicle control group score is used as a determinant of the validity of each test. If the control score is less than 17, the results are discarded and the test repeated. The calculation of percent inhibition of ptosis is: [formula]
Linear regression analysis is used to estimate ED50 values and 95% confidence intervals.

The test system of the next data set is yohimbine toxicity. Nature of the data set: animal or person. Conditions: for ED50: Mus musculus, po, 18 h, read-out: YTP ED50. The format is in vivo, mice. As for the experimental part:
The potentiation of yohimbine toxicity is considered an additional test for screening antidepressant drugs. The method used in this invention is as follows:
Male mice weighing 20 to 30 grams are used. They are housed under standard laboratory conditions with free access to food and water. Compounds are dissolved in distilled water and a suitable surfactant is added in case of poor solubility. Yohimbine hydrochloride is dissolved in distilled water as well. Both compound and yohimbine are administered in a volume of […].
Compounds and vehicle are administered orally 60 minutes prior to a sublethal dose (30 mg/kg s.c.) of yohimbine hydrochloride which alone causes death in about […] of mice (4 out of 400). Ten mice per group are then placed in plastic cages (26×10×16 cm) with food and water available ad libitum. Mortality rate is assessed 18 hours postdosing. ED50 is defined as dose of drug causing death in 5/10 mice and is calculated by probit analysis.

The next data set deals with norepinephrine uptake. The format is biochemical. Conditions: rat brain synaptosomes, 50 nM 3H-NE, 37° C., 5 min; read-out: Reuptake Inhibition of neurotransmitters, Norepinephrine.
Another data set can be described thus: Acute toxicity (LD50). Format: in vivo. As to conditions: death within 24 hours; for LD50 at 24 h: in vivo, ip; for LD50: i.p., 1440 min. How it is done:
LD50 is determined by the dose (mg/kg) at which 50% of the test animals die within 24 hours. In many cases this dose is an approximation.

T2 sequence (P06276 29-602): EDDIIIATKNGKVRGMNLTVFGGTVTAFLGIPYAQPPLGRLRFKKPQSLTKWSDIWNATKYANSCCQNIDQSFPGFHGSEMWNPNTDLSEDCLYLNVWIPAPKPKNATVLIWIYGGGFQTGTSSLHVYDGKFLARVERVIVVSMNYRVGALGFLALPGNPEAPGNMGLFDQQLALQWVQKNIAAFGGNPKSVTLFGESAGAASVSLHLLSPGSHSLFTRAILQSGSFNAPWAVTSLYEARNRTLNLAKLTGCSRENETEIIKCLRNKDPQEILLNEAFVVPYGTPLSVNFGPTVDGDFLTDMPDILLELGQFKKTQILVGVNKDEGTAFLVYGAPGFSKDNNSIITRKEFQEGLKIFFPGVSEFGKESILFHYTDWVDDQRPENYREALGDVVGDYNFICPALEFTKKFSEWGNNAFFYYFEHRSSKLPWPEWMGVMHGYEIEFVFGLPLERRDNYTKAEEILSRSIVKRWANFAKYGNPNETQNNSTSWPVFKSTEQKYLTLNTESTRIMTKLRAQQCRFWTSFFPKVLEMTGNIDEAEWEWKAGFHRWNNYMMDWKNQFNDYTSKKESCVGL

As for `C[C@@H](NC(=O)Oc1ccc2c(c1)[C@]1(C)CCN(C)[C@@H]1N2C)c1ccccc1` (relative stereo) [(3aS-cis)-1,2,3,3a,8,8a-Hexahydro-1,3a,8-trimethylpyrrolo[2,3-b]indol-5-ol,[(R*)-(1-phenyl)ethyl] carbamate ester], the IC50 was 1200 nM in data set [1], 0.0009 mM in data set [2] and 12000 nM in the data set on norepinephrine uptake. Further, the responders at 1.25 mg/kg in data set [3] came to 67%. Also, the “% Inhibition, TBZ” value in data set [4] (20 mg/kg) stood at 50%. The ED50 with yohimbine toxicity came to 16.1 mg/kg. In the data set “Acute toxicity (LD50)”, the LD50 at 24 h was about 40 mg/kg.
In the case of `C[C@H](NC(=O)Oc1ccc2c(c1)[C@]1(C)CCN(C)[C@@H]1N2C)c1ccccc1` (relative stereo) [(3aS-cis)-1,2,3,3a,8,8a-Hexahydro-1,3a,8-trimethylpyrrolo[2,3-b]indol-5-ol,[(S*)-(1-phenyl)ethyl] carbamate ester], the IC50 was 3100 nM in data set [1], over 1 mM in data set [2] and 2200 nM with norepinephrine uptake. Further, the responders at 0.31 mg/kg in data set [3] was 20%. Besides, in data set [4] (20 mg/kg), the “% Inhibition, TBZ” value turned out to be 35%. The ED50 in the data set on yohimbine toxicity worked out at 30 mg/kg. For the same molecule, the LD50 in “Acute toxicity (LD50)” is given as under 80 mg/kg. This molecule also registered an LD50 at 24 h in “Acute toxicity (LD50)” of over 40 mg/kg.
With `CCC1CCC(NC(=O)Oc2ccc3c(c2)[C@]2(C)CCN(C)[C@@H]2N3C)CC1` (stereo partly drawn) [(3aS-cis)-1,2,3,3a,8,8a-Hexahydro-1,3a,8-trimethylpyrrolo[2,3-b]indol-5-ol,4-ethylcyclohexyl carbamate ester], in the data set with norepinephrine uptake, the IC50 turned out to be 2600 nM.
As to `CN1CC[C@@]2(C)c3cc(OC(=O)Nc4ccncc4)ccc3N(C)[C@@H]12` [(3aS-cis)-1,2,3,3a,8,8a-Hexahydro-1,3a,8-trimethylpyrrolo[2,3-b]indol-5-ol,4-pyridinyl carbamate ester], the responders at 0.31 mg/kg in data set [3] is 27%. Further, the IC50 with norepinephrine uptake is over 20000 nM. Besides, the LD50 at 24 h in the data set “Acute toxicity (LD50)” was about 40 mg/kg.
On to `CN1CC[C@@]2(C)c3cc(OC(=O)NC45CC6CC(CC(C6)C4)C5)ccc3N(C)[C@@H]12` [(3aS-cis)-1,2,3,3a,8,8a-Hexahydro-1,3a,8-trimethylpyrrolo[2,3-b]indol-5-ol,(1-adamantyl)carbamate ester], for which the IC50 in data set [1] is 3050 nM; in data set [2] it was over 0.1 mM. The responders at 1.25 mg/kg in data set [3] is 27%.
Take `CN1CC[C@@]2(C)c3cc(OC(=O)N4CC5CCC(CC5)C4)ccc3N(C)[C@@H]12` [(3aS-cis)-1,2,3,3a,8,8a-Hexahydro-1,3a,8-trimethylpyrrolo[2,3-b]indol-5-ol,[3-[3-azabicyclo[3.2.2]nonyl]]carbamate ester fumarate]: the IC50 was 840 nM in data set [1] and over 1 mM in data set [2]. In addition, in data set [3], the responders at 5 mg/kg amounted to 33%.
For the molecule `CN1CC[C@@]2(C)c3cc(OC(=O)NC4CCCCCCCCCCC4)ccc3N(C)[C@@H]12` [(3aS-cis)-1,2,3,3a,8,8a-Hexahydro-1,3a,8-trimethylpyrrolo[2,3-b]indol-5-ol,cyclododecyl carbamate ester], the IC50 was 410 nM in data set [1] and over 1 mM in data set [2].
Consider `CN1CC[C@@]2(C)c3cc(OC(=O)NC4CCCCC4)ccc3N(C)[C@@H]12` [(3aS-cis)-1,2,3,3a,8,8a-Hexahydro-1,3a,8-trimethylpyrrolo[2,3-b]indol-5-ol,cyclohexyl carbamate ester], for which the values for the IC50 in data set [1] and in data set [2] were 900 nM and over 1 mM, respectively. Moreover, the responders at 0.16 mg/kg in data set [3] stood at 31%. In data set [4] (1.25 mg/kg), the “% Inhibition, TBZ” value was found to be 20%. This molecule gave an LD50 in the data set “Acute toxicity (LD50)” of under 10 mg/kg. Further, the LD50 at 24 h in the data set “Acute toxicity (LD50)” is over 5 mg/kg.
For the molecule `COC(=O)[C@@H]1[C@H]2C[C@H]3c4[nH]c5ccccc5c4CCN3C[C@@H]2CC[C@@H]1O` [yohimbine hydrochloride, reference compound], in the data set with yohimbine toxicity (30 mg/kg s.c., alone (4 out of 400 mice)), the “death in mice of yohimbine hydrochloride alone” value was “about 1%”.

What is called ED50 is the dose at which the effect has come halfway, by size or by number of responders. Usually LD50 stands for the dose at which mortality reaches 50%. Low readings indicate a more toxic substance, high ones a less toxic substance.
